Reference: patent US20210284621A1 (priority 2018, published 2021)

Tests used:
[1] = biological target: T1, CB1 receptor (Homo sapiens, UniProt P21554); experiment: cAMP Assay #2: Hit Hunter cAMP assay, Gi-coupled agonist activity, CB1; type: cell-based; design: host or cells: PathHunter cell lines
[2] = biological target: T1, CB1 receptor; experiment: cell-based; design: host or cells: PathHunter cell lines
[3] = biological target: T2, CB2 receptor (Homo sapiens, UniProt P34972); experiment: cell-based; design: host or cells: cAMP Hunter cell lines
In short: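 PathHunter β-Arrestin enzyme fragment complementation cells, EA-tagged β-Arrestin and PK-tagged receptor, exposed to compound for 90 to 180 minutes at 37° C. or room temperature, 1% vehicle. Chemiluminescence read 1 h after detection reagent; agonist % activity relative to vehicle and MAX control ligand.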

[4] = test system: 12 systems of human primary cells; experiment: BioMAP Diversity PLUS phenotypic screen; type: cell-based; settings: 3.3 μM; for Immune modulation, cell surface and tissue remodeling biomarkers: changes at least 1.5-fold from vehicle control
Protocol: Compounds of the invention were assayed for their effects on 148 biomarkers of inflammation, immune modulation and tissue remodeling in the BioMAP® Diversity PLUS® (DiscoverX) platform designed to model aspects of human diseases in vitro (Kunkel 2004, Berg 2006, Melton 2013).
The example compounds (3.3 μM) in Table 8 induced increases or decreases in the levels of the indicated 20 biomarkers, which are at least 1.5-fold change from vehicle control and are outside the significance prediction envelop. All compounds presented in Table 8 were not cytotoxic at the concentration tested.

[5] = biological target: T1, CB1 receptor; experiment: cAMP Assay #1: CB1 adenylylcyclase assay in CHO cells; type: cell-based; design: expressed in transfected cells; host or cells: CHO cells
Protocol: (§1) Compounds of the invention were assayed in an adenylylcyclase assay to determine agonist activity on the CB1 and CB2 receptors, the results of which are provided in Table 4. Exemplary methods for the adenylylcyclase assay can be found in the literature, for example, in Rhee, M-H., et al. Cannabinol Derivatives: Binding to Cannabinoid Receptors and Inhibition of Adenylylcyclase. J Med Chem. 40: 3228-3233 (1997).
CB1 Activity as determined by Adenylylcyclase Assay: CB1 receptor agonist activity was measured by measuring cAMP production. A compound of the invention was incubated with CHO cells expressing human recombinant CB1 for 20 minutes at 37° C.
(§2) Determination of EC50 values: The EC50 values (concentration producing a half-maximal response) were determined by non-linear regression analysis of the concentration-response curves generated with mean replicate values using Hill equation curve fitting: Y=D+[(A−D)/(1+(C/C50)^nH)], where Y=response, A=left asymptote of the curve, D=right asymptote of the curve, C=compound concentration, and C50=EC50, and nH=slope factor. This analysis was performed using software developed at Cerep (Hill software) and validated by comparison with data generated by the commercial software SigmaPlot® 4.0 for Windows® (© 1997 by SPSS Inc.).

[6] = biological target: T2, CB2 receptor; experiment: cAMP Assay #1: CB2 adenylylcyclase assay in CHO cells; type: cell-based; design: expressed in transfected cells; host or cells: CHO cells
Protocol: as §1
CB2 Activity as determined by Adenylylcyclase Assay: CB2 receptor agonist activity was measured by measuring cAMP production. A compound of the invention was incubated with CHO cells expressing human recombinant CB2 for 10 minutes at 37° C.
as §2

[7] = biological target: T2, CB2 receptor; experiment: CB2 competitive radioligand binding assay ([3H] WIN-55,212-2); design: expressed in transfected cells; host or cells: CHO-K1 cells; settings: for Fold Selectivity (CB1/CB2): Table 3, ratio of Ki CB1/CB2
In short: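 CHO-K1 cells expressing human recombinant CB2 were incubated with compound (0.05 μM, 1% DMSO) and 2.4 nM [3H]WIN-55,212-2 in 20 mM HEPES pH 7.0, 0.5% BSA for 90 min at 37 °C. Percent inhibition of radioligand binding was reported.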

[8] = biological target: T2, CB2 receptor; experiment: cAMP Assay #2: Hit Hunter cAMP assay, Gi-coupled agonist activity, CB2; type: cell-based; design: host or cells: cAMP Hunter cell lines; settings: for CB2 fold selectivity: Hit Hunter cAMP, CB1 EC50 / CB2 EC50
[9] = biological target: T1, CB1 receptor; experiment: CB1 competitive radioligand binding assay ([3H] SR141716A); design: expressed in transfected cells; host or cells: Chem-1 cells
In short: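 Chem-1 cells expressing human recombinant CB1 incubated 90 min at 37° C with 2.0 nM [3H]SR141716A and compound at 0.5 μM (1% DMSO) in HEPES pH 7.4 buffer with MgCl2, CaCl2, 0.2% BSA. Read-out is % inhibition of radioligand binding.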

[10] = test system: LPS-induced PBMCs; experiment: Inflammatory cytokine release from LPS-induced PBMCs (Luminex); type: cell-based, human; settings: fold change from LPS-treated PBMCs, compounds 10 μM (DEX 1 μg/ml) 2 h, then LPS 0.1 μg/ml 24 h, negative = reduced
Protocol: Compounds of the invention were assayed for their effect on inflammatory cytokine release from lipopolysaccharides (LPS)-induced PBMCs, isolated from a human blood sample, the results of which are provided in Table 7 as fold change. Exemplary methods for quantifying secretion of inflammatory cytokines in PBMCs are known in the art, for example, as described in Hailer et al., Infection and Immunity. 68(2):752-759 (2000); and Merlini et al., Frontiers in Immunology. 7:614 (2016); each of which is incorporated herein by reference with respect to methods for evaluating cytokine release in PBMCs.
In brief, human blood samples from healthy volunteers were collected and PBMCs were isolated. PBMCs were cultured and each compound was assayed in triplicate at a final concentration of 10 μM for 2 hours. 1 μg/ml dexamethasone (DEX) served as a positive control. LPS was added at a final concentration of 0.1 μg/ml and further incubated for 24 hours. At the end of the incubation, the supernatants were collected and the levels of a panel of secreted cytokines were measured by a Human Magnetic Luminex® assay (R&D). The results in Table 7 are presented as a fold change from LPS-treated PBMCs. Reduced levels are expressed by negative values. OOR denotes values that are out of the standard curve range for the specific cytokine and thus, could not be accurately measured. Cytotoxicity was also determined. Compounds with cytotoxicity ≥50% was considered cytotoxic. Baseline cytotoxicity of untreated PBMCs was 17% and all compounds presented in Table 7 induced cytotoxicity below 25%.

[11] = PathHunter agonist mode, read-out: CB2 Activity (β-Arrestin)
[12] = OOR = out of standard curve range

T2 sequence (P34972 whole entry, the tested form may be a part): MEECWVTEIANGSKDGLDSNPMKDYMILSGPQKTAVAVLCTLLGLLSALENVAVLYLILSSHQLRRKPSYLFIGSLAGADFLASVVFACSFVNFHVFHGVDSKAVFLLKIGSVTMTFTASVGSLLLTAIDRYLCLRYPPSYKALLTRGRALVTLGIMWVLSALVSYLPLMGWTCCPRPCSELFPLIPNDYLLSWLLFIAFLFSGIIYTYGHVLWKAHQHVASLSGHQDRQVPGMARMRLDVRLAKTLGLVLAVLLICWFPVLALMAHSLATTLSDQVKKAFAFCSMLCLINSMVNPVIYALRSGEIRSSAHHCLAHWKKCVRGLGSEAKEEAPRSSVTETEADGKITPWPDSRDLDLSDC
T1 sequence (P21554 whole entry): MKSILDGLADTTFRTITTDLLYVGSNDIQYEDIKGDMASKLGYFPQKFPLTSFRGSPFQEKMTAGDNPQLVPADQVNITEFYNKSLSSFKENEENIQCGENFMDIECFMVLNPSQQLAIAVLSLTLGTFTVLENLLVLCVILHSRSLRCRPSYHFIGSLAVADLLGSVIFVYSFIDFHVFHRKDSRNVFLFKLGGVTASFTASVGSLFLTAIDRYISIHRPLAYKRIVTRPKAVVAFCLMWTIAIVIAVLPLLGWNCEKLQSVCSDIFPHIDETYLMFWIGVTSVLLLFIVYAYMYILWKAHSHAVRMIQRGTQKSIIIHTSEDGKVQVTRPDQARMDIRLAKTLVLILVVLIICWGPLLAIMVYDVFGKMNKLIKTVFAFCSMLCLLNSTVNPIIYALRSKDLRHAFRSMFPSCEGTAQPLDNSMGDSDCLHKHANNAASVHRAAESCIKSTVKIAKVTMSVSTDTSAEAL

Structure (SMILES)	EC50 [1] [µM]	EC50 [2] [µM]	EC50 [3, 11] [µM]	Immune modulation, cell surface and tissue remodeling biomarkers [4]	Ki [7] [µM]	EC50 [8] [µM]	CB2 fold selectivity [8]	Ki [9] [µM]	EC50 [3] [µM]	Fold Selectivity (CB1/CB2) [7]	further results
CCCCCCC(C)(C)c1cc(O)c2c(c1)OC(C)(C)c1ccc(C(=O)O)cc1-2 [Compound 31, 1-hydroxy-6,6-dimethyl-3-(2-methyloctan-2-yl)-6H-benzo[c]chromene-9-carboxylic acid]	0.636	> 3	0.109	Reduced Eotaxin-3 and IP-10; increased MMP-1	2.04	0.0684	9.3	> 3			EC50 [5]: > 0.1 µM; EC50 [6]: 0.053 µM; inhibition at 0.05 µM ([7]; 0.05 μM compound, 2.4 nM [3H] WIN-55,212-2, 90 min 37° C.): 20%; inhibition at 0.5 µM ([9]; 0.5 μM compound, 2.0 nM [3H] SR141716A, 90 min 37° C.): 12%
CCCCCCC(C)(C)c1cc(O)c2c(c1)OC(C)(C)[C@@H]1CC=C(C(=O)NC(C)C)C[C@@H]21 [Compound 91, (6aR,10aR)-1-hydroxy-N-isopropyl-6,6-dimethyl-3-(2-methyloctan-2-yl)-6a,7,10,10a-tetrahydro-6H-benzo[c]chromene-9-carboxamide]	0.0069	0.0209		Reduced Eotaxin-3, P-selectin, CD69, and EGFR, IL-10	0.0032	0.0015	4.5	0.0348	0.0017	10.9	IL17A [10]: 1.2 fold change; IL-1β [10]: −1.4 fold change; IL-4 [10]: −1.6 fold change; IL-6 [10]: −2.2 fold change; IL-8 [10]: −1.3 fold change; IL-10 [10]: −2.3 fold change; MCP-1 [10]: −1.4 fold change; TNFα [10]: −1.2 fold change; IL-12 (p70) [10, 12]: −1.7 fold change; L-31 [10, 12]: −2.1 fold change
CCCCCCC(C)(C)c1cc(O)c2c(c1)OC(C)(C)[C@@H]1CC=C(C(=O)NC3CCCC3)C[C@@H]21 [Compound 92, (6aR,10aR)-N-cyclopentyl-1-hydroxy-6,6-dimethyl-3-(2-methyloctan-2-yl)-6a,7,10,10a-tetrahydro-6H-benzo[c]chromene-9-carboxamide]	0.0288	0.0173		Reduced P-selectin	0.0038	0.0016	17.7	0.0457	0.0014	12.0	
CCCCCCC(C)(C)c1cc(O)c2c(c1)OC(C)(C)[C@@H]1CC=C(C(=O)NC(C)=N)C[C@@H]21 [Compound 94, (6aR,10aR)-1-hydroxy-N-(1-iminoethyl)-6,6-dimethyl-3-(2-methyloctan-2-yl)-6a,7,10,10a-tetrahydro-6H-benzo[c]chromene-9-carboxamide]	0.0079	0.0949		Reduced MCP-1 and CD69; increased IL-1α	0.0126	0.0063	1.3	0.0188	0.0043	1.5	
CCCCCCC(C)(C)c1cc(O)c2c(c1)OC(C)(C)[C@@H]1CC=C(C(=O)NC(C)(C)C(F)(F)F)C[C@@H]21 [Compound 100, (6aR,10aR)-1-hydroxy-6,6-dimethyl-3-(2-methyloctan-2-yl)-N-(1,1,1-trifluoro-2-methylpropan-2-yl)-6a,7,10,10a-tetrahydro-6H-benzo[c]chromene-9-carboxamide]	0.107	0.257	0.0012	Reduced Eotaxin-3, P-selectin, and CD69,	0.0072	0.0021	49.7	0.0723		10.0	Anti-proliferation ([4]; cell type in which anti-proliferative effect was seen): Dermal fibroblasts
